{"source": "patent US4289786A", "about": "“Farnesylacetic acid ester derivatives” (Kuraray Co., Ltd., priority 1978, dated 1981)", "key": {"[1]": {"system": "indomethacin-induced ulcers on the gastric mucosa", "experiment": "Indomethacin-induced ulcer (antiulcerogenic activity)", "format": "in vivo, male Donryu rats", "details": "Rattus norvegicus, 7 h; indomethacin 15 mg/kg s.c.; test compound 300 mg/kg oral, 10 minutes prior; hydrochlorides except one quaternary ammonium salt; read-out: Prevention ratio", "description": "After fasting for 24 hours, male Donryu rats weighing 210 to 230 grams were administered subcutaneously with indomethacin suspended in 1% aqueous solution of carboxymethylcellulose at a dosage level of 15 mg/kg. Seven hours later, the animals were sacrificed by ether inhalation. The rat stomach was cut open and the indomethacin-induced ulcers appearing on the gastric mucosa were measured for their length in mm. The total length of ulcers per animal was designated as the ulcer index. The farnesylacetic acid ester derivatives (test compounds) prepared by any of the synthetic procedures described above and geranyl farnesylacetate as a control were orally administered 10 minutes prior to the indomethacin administration. The antiulcerogenic activity was evaluated in terms of the prevention ratio, i.e. the quotient of the difference in ulcer index between the test compound group and the control group divided by the ulcer index for the control group. The numbers in the test compound column are those previously assigned to the exemplary compounds of the present invention each represented by a structural formula, and the example numbers are the numbers of examples wherein preparation of the corresponding compounds is described. The test compounds were all hydrochlorides except for one quaternary ammonium salt."}, "[2]": {"system": "stress ulcer on the gastric gland", "experiment": "Stress ulcer (water immersion restraint)", "format": "in vivo, male Donryu rats", "details": "300 mg/kg oral, 10 minutes before immersion; 23° C. water, seven hours; hydrochlorides", "description": "Male Donryu rats weighing 240-260 grams were immobilized in wire cages (cf. Japanese Journal of Pharmacology, 18, 9-18 (1968)) and placed under stress by immersing them in water at 23° C. to the level of the breast. Seven hours later, the animals were taken up from the water tank and immediately sacrificed by blowing and the stomach was excised. The stomach was inflated with 1% formalin and then cut open and the ulcer on the gastric gland were measured for length in mm. The total ulcer length per animal was designated as the ulcer index. In the above-mentioned test, the compounds (hydrochlorides) (test compounds (1) and (4)) prepared by the procedure of Examples 1 and 2, respectively and geranyl farnesylacetate were administered orally to the rats 10 minutes before the immersion. In the Table, the prevention ratio has the same meaning as defined for the indomethacin-induced ulcer in Example 16."}, "[3]": {"experiment": "Acute toxicity--1 (oral, rats)", "format": "in vivo", "details": "rat, in vivo, Wistar rats, observation 2 weeks, hydrochlorides", "description": "(§1) Wistar rats, five weeks of age, were fed previously for one week and then subjected to the test. All the test compounds were administered orally. The observation period was 2 weeks. The test compounds (4), (1) and (16) used were the products prepared in the above Examples 2, 1 and 8, respectively, and were all in the form of hydrochlorides."}, "Wistar rats": {"system": "Wistar rats", "experiment": "Acute toxicity--1 (oral, rats)", "format": "in vivo", "details": "rats", "description": "as §1"}, "[4]": {"experiment": "Acute toxicity--2 (oral, mice)", "format": "in vivo", "details": "mouse, in vivo, ddY mice, observation one week, hydrochlorides", "description": "(§2) Five-week-old ddY mice were fed previously for one week and then subjected to the test. All the test compounds were administered orally and the observation period was one week. The test compounds (23), (7) and (13) used were the products of the above Example 5, 10 and 4, respectively and were all in the form of hydrochlorides (the product of Example 10 was converted into the hydrochloride by a conventional method)."}, "ddY mice": {"system": "ddY mice", "experiment": "Acute toxicity--2 (oral, mice)", "format": "in vivo", "details": "mice", "description": "as §2"}, "[5]": {"experiment": "Aqueous solution of hydrochloride", "format": "physicochemical", "details": "in water", "description": "Using the lower alkyl esters of farnesylacetic acids shown in Table 1 and the amino alcohols also shown in Table 1, ester exchange reaction was carried out by the procedure of Example 1, to prepare a variety of amine-nitrogen-containing farnesylacetic acid esters and hydrochlorides thereof. In the chemical formula appearing in the table, P stands for a prenyl group, G a geranyl group and F a farnesyl group."}, "rats": {"system": "rats", "details": "cited from earlier work"}, "mice": {"system": "mice", "details": "cited from earlier work"}, "ulcers": {"system": "ulcers", "details": "known compounds, prior art; cited from earlier work"}}, "data": [{"smiles": "CCN(CC)CCOC(=O)CCC=C(C)CCC=C(C)CCC=C(C)C", "note": "[(1), 2-diethylaminoethyl farnesylacetate]", "values": [{"measurement": "inhibition in vivo at 300 mg/kg", "setting": "[1]", "value": 64.1, "unit": "%"}, {"measurement": "Prevention ratio", "setting": "[2]", "value": 42.1, "unit": "%"}, {"measurement": "LD50 at 336 h", "setting": "[3]", "value": "> 5400", "unit": "mg/kg"}, {"measurement": "Number of dead animals/number of animals used", "setting": "Wistar rats; dose 4.1 g/kg", "value": "0/5"}, {"measurement": "Number of dead animals/number of animals used", "setting": "Wistar rats; dose 5.4 g/kg", "value": "0/5"}]}, {"smiles": "CC[N+](CC)(CC)CCOC(=O)CCC=C(C)CCC=C(C)CCC=C(C)C", "note": "[(2), farnesylacetoxyethyltriethylammonium bromide]", "values": [{"measurement": "inhibition in vivo at 300 mg/kg", "setting": "[1]", "value": 68.8, "unit": "%"}]}, {"smiles": "CC(C)=CCCC(C)=CCCC(C)=CCCC(=O)OCCCN(C)C", "note": "[(4), 3-Dimethylaminopropyl farnesylacetate]", "values": [{"measurement": "inhibition in vivo at 300 mg/kg", "setting": "[1]", "value": 65.8, "unit": "%"}, {"measurement": "Prevention ratio", "setting": "[2]", "value": 40.1, "unit": "%"}, {"measurement": "LD50 at 336 h", "setting": "[3]", "value": "> 4000", "unit": "mg/kg"}, {"measurement": "Number of dead animals/number of animals used", "setting": "Wistar rats; dose 3 g/kg", "value": "0/5"}, {"measurement": "Number of dead animals/number of animals used", "setting": "Wistar rats; dose 4 g/kg", "value": "0/5"}]}, {"smiles": "CC(C)=CCCC(C)=CCCC(C)=CCCC(=O)OC(C)(C)CN(C)C", "note": "[(7), 1,1-dimethyl-2-dimethylaminoethyl farnesylacetate]", "values": [{"measurement": "inhibition in vivo at 300 mg/kg", "setting": "[1]", "value": 91.7, "unit": "%"}, {"measurement": "LD50 at 168 h", "setting": "[4]", "value": 8400, "unit": "mg/kg"}, {"measurement": "Number of dead animals/number of animals used", "setting": "ddY mice; dose 6 g/kg", "value": "0/4"}, {"measurement": "Number of dead animals/number of animals used", "setting": "ddY mice; dose 8 g/kg", "value": "1/3"}, {"measurement": "Number of dead animals/number of animals used", "setting": "ddY mice; dose 10 g/kg", "value": "3/3"}]}, {"smiles": "CC(C)=CCCC(C)=CCCC(C)=CCCC(=O)OCCN(CC=C(C)CCC=C(C)C)CC=C(C)CCC=C(C)C", "note": "[(13)]", "values": [{"measurement": "inhibition in vivo at 300 mg/kg", "setting": "[1]", "value": 81.3, "unit": "%"}, {"measurement": "Appearance of aqueous solution of hydrochloride (water solubility)", "setting": "[5]", "value": "Insoluble"}, {"measurement": "LD50 at 168 h", "setting": "[4]", "value": 7000, "unit": "mg/kg"}, {"measurement": "Number of dead animals/number of animals used", "setting": "ddY mice; dose 1 g/kg", "value": "0/3"}, {"measurement": "Number of dead animals/number of animals used", "setting": "ddY mice; dose 2 g/kg", "value": "1/3"}, {"measurement": "Number of dead animals/number of animals used", "setting": "ddY mice; dose 6 g/kg", "value": "2/3"}, {"measurement": "Number of dead animals/number of animals used", "setting": "ddY mice; dose 10 g/kg", "value": "2/3"}, {"measurement": "Number of dead animals/number of animals used", "setting": "ddY mice; dose 20 g/kg", "value": "3/3"}]}, {"smiles": "CCN(CCOC(=O)CCC=C(C)CCC=C(C)CCC=C(C)C)c1ccccc1", "note": "[(14)]", "values": [{"measurement": "inhibition in vivo at 300 mg/kg", "setting": "[1]", "value": 70.2, "unit": "%"}, {"measurement": "Appearance of aqueous solution of hydrochloride (water solubility)", "setting": "[5]", "value": "Insoluble"}]}, {"smiles": "CC(C)=CCCC(C)=CCCC(C)=CCC(Cc1ccccc1)C(=O)OCCN(C)C", "note": "(stereo not shown) [(16)]", "values": [{"measurement": "inhibition in vivo at 300 mg/kg", "setting": "[1]", "value": 84.5, "unit": "%"}, {"measurement": "LD50 at 336 h", "setting": "[3]", "value": "> 15000", "unit": "mg/kg"}, {"measurement": "Number of dead animals/number of animals used", "setting": "Wistar rats; dose 5 g/kg", "value": "0/5"}, {"measurement": "Number of dead animals/number of animals used", "setting": "Wistar rats; dose 10 g/kg", "value": "1/5"}, {"measurement": "Number of dead animals/number of animals used", "setting": "Wistar rats; dose 15 g/kg", "value": "1/5"}]}, {"smiles": "CC(C)=CCCC(C)=CCCC(C)=CCCC(=O)OCCN1CCN(CCO)CC1", "note": "[(23)]", "values": [{"measurement": "inhibition in vivo at 300 mg/kg", "setting": "[1]", "value": 93.2, "unit": "%"}, {"measurement": "LD50 at 168 h", "setting": "[4]", "value": 4000, "unit": "mg/kg"}, {"measurement": "Number of dead animals/number of animals used", "setting": "ddY mice; dose 1.3 g/kg", "value": "0/3"}, {"measurement": "Number of dead animals/number of animals used", "setting": "ddY mice; dose 4.0 g/kg", "value": "2/4"}, {"measurement": "Number of dead animals/number of animals used", "setting": "ddY mice; dose 6.6 g/kg", "value": "3/3"}]}, {"smiles": "CCN1CCC(OC(=O)CCC=C(C)CCC=C(C)CCC=C(C)C)CC1", "note": "[(24), N-ethyl-4-farnesylacetoxy-piperidine]", "values": [{"measurement": "inhibition in vivo at 300 mg/kg", "setting": "[1]", "value": 76.6, "unit": "%"}]}, {"smiles": "CC(C)=CCCC(C)=CCCC(C)=CCCC(=O)OCC1CCCCN1C", "note": "(stereo not shown) [(26)]", "values": [{"measurement": "inhibition in vivo at 300 mg/kg", "setting": "[1]", "value": 47.9, "unit": "%"}]}, {"smiles": "CC(C)=CCCC(C)=CCCC(C)=CCCC(=O)OCC=C(C)CCC=C(C)C", "note": "[Geranyl farnesylacetate, 3,7-dimethyl-2,6-octadienyl 5,9,13-trimethyl-4,8,12-tetradecatrienoate]", "values": [{"measurement": "inhibition in vivo at 300 mg/kg", "setting": "[1]", "value": 6.1, "unit": "%"}, {"measurement": "LD50", "setting": "rats", "value": "more than 8 g/kg"}, {"measurement": "LD50", "setting": "mice", "value": "more than 8 g/kg"}, {"measurement": "Prevention ratio", "setting": "[2]", "value": 32.0, "unit": "%"}, {"measurement": "antiulcer / antiulcerogenic activity (in words)", "setting": "ulcers", "value": "high antiulcerogenic activity"}]}]}
